# Results taken from patent publication US20190030039A1, “PREVENTION OF SSRI-INDUCED GASTROINTESTINAL DYSFUNCTION WITH A 5-HT4 RECEPTOR ANTAGONIST” (The Trustees of Columbia University in the City of New York, priority 2016, published 2019).
# Tests used:
# mice [1] = assay: Colonic transit time (glass bead expulsion) in pups exposed during gestation and breastfeeding; type: in vivo; conditions: Piboserod given to mouse mothers during pregnancy and breastfeeding concomitantly with Fluoxetine; pups evaluated at 6-8 weeks; FIG. 2
# Experimental: FIG. 2 is a bar graph showing colonic transit time (expressed as percentage of control). Maternal dams were administered either water (control), Fluoxetine (SSRI), or both Fluoxetine and Piboserod (SSRI+Pibo) from E1 through weaning from breastfeeding. Pups were thus exposed to aforementioned medications during gestation and breastfeeding. Once pups were weaned, at P21, they were not given any medications. Pups were evaluated at 6-8 weeks of age to rule out acute drug effects. Colonic transit time was measured by inserting a 2 mm glass bead 4 cm into the rectum and calculating the time it took for bead expulsion to occur.
# (§1) In the present invention, the serotonin-4 receptor (5-HT4R) has been identified as a critical player in SERT modulation, ENS and CNS development and GI function. […] (FIGS. 1-2). […] Administration of a 5-HT4R antagonist during neurodevelopment thus corrects the long-lasting gastrointestinal motility and behavioral defects caused by developmental exposure to SSRls.
# mice [2] = assay: Novelty-suppressed feeding (NSF) test, measurement of anxiety; type: in vivo, mouse; conditions: FIGS. 3A-3D
# Experimental: FIGS. 3A-3D are a series of bar graphs showing results from the novelty-suppressed feeding (NSF) test, a measurement of anxiety. Maternal dams were administered either water (control), Fluoxetine (SSRI), or both Fluoxetine and Piboserod (SSRI+Pibo) from E1 through weaning from breastfeeding. Pups were thus exposed to aforementioned medications during gestation and breastfeeding. Once pups were weaned, at P21, they were not given any medications. The pups were evaluated at 6-8 weeks of age to rule out acute drug effects. The NSF test began with a short term food restriction of 18 hours (water was still available). After the test, mice were given food ad libitum again. The NSF test is a “conflict” test, which assesses the competing motivations of the animal to explore (forage) for food versus remain in the safety of the periphery of the arena. Mice were placed into a white box with shavings on the floor and two food pellets placed on a circle of filter paper in the center of the arena. The latency to chew the food is the measure of anxiety. Measured times included time to reach the filter paper with the food pellet on it (“time to filter”), time to touch/smell the pellet (“time to pellet”), time to bite the pellet (“time to bite”) and time to sit and eat the pellet (“time to sit and eat”). […]
# mice [3] = assay: Total intestinal transit time (Rhodamine B bolus) in pups exposed during gestation and breastfeeding; type: in vivo; conditions: Piboserod given to mouse mothers during pregnancy and breastfeeding concomitantly with Fluoxetine; pups evaluated at 6-8 weeks; FIG. 1
# Experimental: FIG. 1 is a bar graph showing total intestinal transit time (expressed as percentage of control). Maternal dams were administered either water (control), Fluoxetine (SSRI), or both Fluoxetine and Piboserod (SSRI+Pibo) from embryonic day 1 (E1) through weaning from breastfeeding. Pups were thus exposed to aforementioned medications during gestation and breastfeeding. Once pups were weaned, at postnatal day 21 (P21), they were not given any medications. Pups were then evaluated at 6-8 weeks of age to rule out acute drug effects. Total intestinal transit time was measured by administering a bolus of Rhodamine B (time 0) and calculating the amount of time until the rhodamine was found in the stool.
# as §1
# mice [4] = assay: Sucrose preference test, measurement of depression; type: in vivo, mouse; conditions: FIG. 4
# Experimental: FIG. 4 is a bar graph showing results from the sucrose preference test, a measurement of depression in mice. Maternal dams were administered either water (control), Fluoxetine (SSRI), or both Fluoxetine and Piboserod (SSRI+Pibo) from E1 through weaning from breastfeeding. Pups were thus exposed to aforementioned medications during gestation and breastfeeding. Once pups were weaned, at P21, they were not given any medications. The pups were evaluated at 6-8 weeks of age to rule out acute drug effects. For the sucrose preference test, mice were trained for 2 days to drink diluted sucrose and water from serological pipettes with sippers attached and testing was done on day 3. The volumes of sucrose and water consumed overnight were recorded. A reduced preference for sucrose solution over plain water represents anhedonia.
# as §1
# [5] = at birth; in utero exposure; cited from earlier work
# [6] = mice exposed to Piboserod and Fluoxetine concomitantly in utero and during breastfeeding
# [7] = mice exposed to Fluoxetine in utero and during breastfeeding, evaluated at 6-8 weeks
levels of anxiety (novelty-suppressed feeding) (mice [2]; [7]),levels of depression (sucrose preference test) (mice [4]; [7]),SMILES,colonic motility (mice [1]),anxiety behavior (novelty-suppressed feeding) (mice [2]; [6]),total intestinal transit (mice [3]),depression behavior (sucrose preference test) (mice [4]; [6]),"plasma Fluoxetine levels in newborns, of maternal levels [5]"
–,–,CCCCN1CCC(CNC(=O)c2c3n(c4ccccc24)CCCO3)CC1 [Piboserod],comparable with control mice,behaviorally comparable to control mice,comparable with control mice,behaviorally comparable to control mice,–
increased levels,increased levels,CNCCC(Oc1ccc(C(F)(F)F)cc1)c1ccccc1 (stereo not shown) [Fluoxetine],–,–,–,–,approximately 70%
